# Test results: US20200170975A1 (Strongbridge Dublin Limited, priority 2018, published 2020)
# Where two headings read alike, the source gives them in different places.
# How the values were obtained:
# [1] = molecular target: T1, MATE1 (Homo sapiens, UniProt Q96FL8)
# T1 sequence (Q96FL8 1-570): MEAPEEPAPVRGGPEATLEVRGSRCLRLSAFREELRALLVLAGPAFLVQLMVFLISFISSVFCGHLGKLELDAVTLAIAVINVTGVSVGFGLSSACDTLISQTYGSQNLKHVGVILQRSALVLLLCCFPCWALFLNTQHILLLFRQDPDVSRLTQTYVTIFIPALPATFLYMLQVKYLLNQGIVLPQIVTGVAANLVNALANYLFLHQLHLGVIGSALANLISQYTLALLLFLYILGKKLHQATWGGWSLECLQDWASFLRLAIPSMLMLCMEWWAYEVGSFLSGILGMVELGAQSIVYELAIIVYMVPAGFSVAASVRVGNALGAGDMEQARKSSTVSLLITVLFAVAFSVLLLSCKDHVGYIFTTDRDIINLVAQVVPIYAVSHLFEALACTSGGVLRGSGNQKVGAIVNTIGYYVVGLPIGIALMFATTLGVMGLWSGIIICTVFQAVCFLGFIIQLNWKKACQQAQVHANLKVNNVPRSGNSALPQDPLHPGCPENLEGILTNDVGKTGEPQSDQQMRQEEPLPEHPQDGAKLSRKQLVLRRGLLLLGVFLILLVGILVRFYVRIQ
# Procedure: (§1) [^14C]-Metformin (1 mM) was provided as a solid and was prepared in Hank's balanced salt solution (HBSS).
# (§2) Cells were plated onto standard 24-well tissue culture plates in cell culture medium 1 to 3 days before the experiment. MATE1 and MATE2-K and control cells were incubated with butyric acid (10 mM) for 24 hours before the experiment to inhibit suppression of the transporter.
# [2] = molecular target: MATE2-K (Homo sapiens, UniProt Q86VL8); conditions: [14C]-Metformin 10 μM
# Procedure: as §1, §2
# [3] = molecular target: T2, BCRP (Homo sapiens, UniProt Q9UNQ0); assay: BCRP inhibition: bidirectional transport of prazosin across MDCKII-BCRP and control MDCKII cells
# T2 sequence (Q9UNQ0 1-655): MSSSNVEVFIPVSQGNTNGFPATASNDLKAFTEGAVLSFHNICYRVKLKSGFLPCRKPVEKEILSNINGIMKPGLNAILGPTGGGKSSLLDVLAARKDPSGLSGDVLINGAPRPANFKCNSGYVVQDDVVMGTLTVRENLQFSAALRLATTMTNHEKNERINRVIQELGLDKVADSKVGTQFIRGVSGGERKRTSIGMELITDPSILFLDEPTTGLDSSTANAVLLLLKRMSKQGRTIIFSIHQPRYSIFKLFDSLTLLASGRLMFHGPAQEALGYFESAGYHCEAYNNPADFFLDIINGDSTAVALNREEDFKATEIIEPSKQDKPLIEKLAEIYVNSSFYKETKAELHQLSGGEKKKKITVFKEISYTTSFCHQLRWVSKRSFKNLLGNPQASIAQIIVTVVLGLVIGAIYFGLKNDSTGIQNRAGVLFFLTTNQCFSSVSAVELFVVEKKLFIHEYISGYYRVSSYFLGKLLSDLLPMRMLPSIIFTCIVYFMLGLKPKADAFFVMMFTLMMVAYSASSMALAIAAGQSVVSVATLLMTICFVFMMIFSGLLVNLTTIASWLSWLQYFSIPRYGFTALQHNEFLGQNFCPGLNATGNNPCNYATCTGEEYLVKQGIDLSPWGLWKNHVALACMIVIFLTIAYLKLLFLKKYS
# Text: MDCKII P-gp, MDCKII BCRP and control MDCKII cells were purchased from the Netherlands Cancer Institute.
# [4] = molecular target: P-gp (Homo sapiens, UniProt P08183); assay: P-gp inhibition: bidirectional transport of digoxin across Caco-2 cells
# Sequence of P-gp (P08183 whole entry): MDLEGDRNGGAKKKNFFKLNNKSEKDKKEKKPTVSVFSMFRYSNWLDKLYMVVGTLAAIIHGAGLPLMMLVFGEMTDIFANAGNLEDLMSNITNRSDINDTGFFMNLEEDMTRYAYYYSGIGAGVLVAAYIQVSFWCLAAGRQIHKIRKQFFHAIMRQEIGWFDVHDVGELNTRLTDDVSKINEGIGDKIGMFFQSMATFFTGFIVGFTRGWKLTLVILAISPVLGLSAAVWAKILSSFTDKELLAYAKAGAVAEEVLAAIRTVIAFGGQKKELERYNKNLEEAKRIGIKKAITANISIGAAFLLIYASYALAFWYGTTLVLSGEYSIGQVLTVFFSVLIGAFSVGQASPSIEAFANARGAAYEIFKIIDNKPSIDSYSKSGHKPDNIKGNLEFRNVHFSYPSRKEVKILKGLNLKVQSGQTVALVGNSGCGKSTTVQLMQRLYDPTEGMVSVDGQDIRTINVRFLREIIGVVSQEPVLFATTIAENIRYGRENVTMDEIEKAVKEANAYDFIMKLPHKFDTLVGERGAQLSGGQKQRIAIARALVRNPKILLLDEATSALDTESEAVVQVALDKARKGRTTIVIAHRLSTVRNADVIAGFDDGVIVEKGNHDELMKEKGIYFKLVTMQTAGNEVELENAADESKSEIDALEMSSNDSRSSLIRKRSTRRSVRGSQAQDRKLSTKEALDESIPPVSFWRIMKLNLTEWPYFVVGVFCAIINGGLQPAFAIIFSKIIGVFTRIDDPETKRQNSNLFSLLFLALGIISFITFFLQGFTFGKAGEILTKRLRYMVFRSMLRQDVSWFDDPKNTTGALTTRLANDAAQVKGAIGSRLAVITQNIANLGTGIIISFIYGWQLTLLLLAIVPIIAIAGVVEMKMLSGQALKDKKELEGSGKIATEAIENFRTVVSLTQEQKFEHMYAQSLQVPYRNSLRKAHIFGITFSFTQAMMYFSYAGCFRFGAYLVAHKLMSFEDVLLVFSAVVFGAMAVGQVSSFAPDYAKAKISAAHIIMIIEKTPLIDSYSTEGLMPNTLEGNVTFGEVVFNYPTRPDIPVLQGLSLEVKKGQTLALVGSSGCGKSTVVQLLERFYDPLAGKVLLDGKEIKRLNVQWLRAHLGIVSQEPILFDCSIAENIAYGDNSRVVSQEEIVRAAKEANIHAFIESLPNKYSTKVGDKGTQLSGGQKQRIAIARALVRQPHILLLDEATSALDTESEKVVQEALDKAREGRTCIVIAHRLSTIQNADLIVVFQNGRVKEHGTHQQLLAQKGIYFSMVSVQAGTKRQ
# Sequence of MATE2-K (Q86VL8 1-566 isoform Q86VL8-3): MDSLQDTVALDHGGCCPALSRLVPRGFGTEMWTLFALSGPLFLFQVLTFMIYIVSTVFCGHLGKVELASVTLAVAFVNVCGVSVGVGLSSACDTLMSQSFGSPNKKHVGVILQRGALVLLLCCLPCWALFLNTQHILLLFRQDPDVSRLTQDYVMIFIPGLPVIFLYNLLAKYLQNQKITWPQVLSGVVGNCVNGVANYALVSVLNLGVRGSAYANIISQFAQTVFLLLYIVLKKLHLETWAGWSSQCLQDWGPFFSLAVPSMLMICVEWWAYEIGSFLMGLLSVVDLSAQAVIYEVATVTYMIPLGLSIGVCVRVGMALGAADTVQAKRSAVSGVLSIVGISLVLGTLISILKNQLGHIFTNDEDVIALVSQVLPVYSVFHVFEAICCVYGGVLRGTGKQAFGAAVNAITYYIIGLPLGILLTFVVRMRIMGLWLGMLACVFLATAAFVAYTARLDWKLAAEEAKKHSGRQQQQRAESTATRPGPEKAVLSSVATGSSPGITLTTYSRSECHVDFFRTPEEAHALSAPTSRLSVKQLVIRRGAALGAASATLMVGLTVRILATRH
compound,measurement,setting,value
CN/C(=N/CCSCc1nc[nH]c1C)NC#N [Cimetidine],% control,"[1]; HEK293 cells, inhibitor 10 μm",19.3%
same,Background corrected uptake rate,"[1]; HEK293 cells, inhibitor 10 μm",16.0 pmol/mg/min
same,"Uptake, MATE1 (Average ± SD)","[1]; MATE1 HEK293 cells, inhibitor 10 μm",85.2 ± 7.8 pmol/mg protein
same,"Uptake, Control (Average ± SD)","[1]; control HEK293 cells, inhibitor 10 μm",5.20 ± 0.63 pmol/mg protein
same,"Uptake, MATE2-K (Average ± SD)","[2]; MATE2-K HEK293 cells, inhibitor 300 μM",32.3 ± 11.7 pmol/mg protein
same,% control,[2]; inhibitor 300 μM,18.1%
same,Background corrected uptake rate,[2]; inhibitor 300 μM,4.99 pmol/mg/min
same,"Uptake, Control (Average ± SD)","[2]; control HEK293 cells, inhibitor 300 μM",7.34 ± 0.20 pmol/mg protein
Cc1cccc(C)c1OCC(=O)N[C@@H](Cc1ccccc1)[C@@H](O)C[C@H](Cc1ccccc1)NC(=O)[C@H](C(C)C)N1CCCNC1=O [Lopinavir],Papp Apical to basal (Average ± SD),[3],3.23e-05 cm/s
same,Papp Basal to apical (Average ± SD),[3],37.6 ± 1.6 ×10^−6 cm/sec
same,Papp Apical to basal (Average ± SD),[3]; MDCK,13.3 ± 10.0 ×10^−6 cm/sec
same,Papp Basal to apical (Average ± SD),[3]; MDCK,20.9 ± 4.7 ×10^−6 cm/sec
CCc1nc(N)nc(N)c1-c1ccc(Cl)cc1 [Pyrimethamine],% control,"[1]; HEK293 cells, inhibitor 0.1 μm",14.2%
same,% control,[2]; inhibitor 0.3 μM,50.6%
C/C=C/C[C@@H](C)C(=O)[C@H]1C(=O)N[C@@H](C(C)C)C(=O)N(C)CC(=O)N(C)[C@@H](CC(C)C)C(=O)N[C@@H](C(C)C)C(=O)N(C)[C@@H](CC(C)C)C(=O)N[C@@H](C)C(=O)N[C@H](C)C(=O)N(C)[C@@H](CC(C)C)C(=O)N(C)[C@@H](CC(C)C)C(=O)N(C)[C@@H](C(C)C)C(=O)N1C [Valspodar],Papp A:B (Average ± SD),[4],9.12 ± 1.34 ×10^−6 cm/sec
same,Papp B:A (Average ± SD),[4],10.0 ± 2.5 ×10^−6 cm/sec
